Read-outs that look alike come from different tables or passages of the source.
Key:
[1] = Comparative bioavailability study in dogs, plasma levels of modafinil after a single oral dose; format: in vivo, dog
Description: A comparative bioavailability study was carried out in dogs to determine the pharmacokinetic profile of the new polymorphs form IV and form V of modafinil. The study was aimed to compare plasma levels of polymorphs form IV and form V versus the reference form I. Six male beagle dogs were randomly assigned to three groups according to a (3×3) Latin-square design. Each group was administered a single oral 30 mg/kg body weight dose of either form IV or form V or the reference form I and two successive administrations were separated by a one-week wash-out period according to the protocol design reported table 1.
Dogs were fasted overnight prior dosing and food was returned to them four hours after dosing. Blood samples were collected after each dose by venepuncture at predose (within one hour of dosing) and at 0.5, 1, 1.5, 2, 2.5, 3, 4, 5.5, 7, 9 and 24 hours post-dose. Blood samples were collected on heparinized test tubes and immediately centrifuged at 3,000 rpm. Then plasma was drawn off and stored frozen (−20° C.) until analyzed. Plasma concentrations of modafinil were determined by validated high-pressure liquid chromatography according to the method of Moachon G. et al. (J. Chromatog. B 1994; 654: 91). Pharmacokinetic parameters were determined using noncompartimental analysis.

[2] = Relative stability of polymorphic forms; format: physicochemical; conditions: 20° C. / room temperature
Source text: Modafinil form I was identified as the thermodynamic form (at room temperature). Form I is obtained via crystallization, preferably under atmospheric pressure, at room temperature.

[3] = Table 2, male beagle dogs, single oral 30 mg/kg, mean ± SEM, 30 mg/kg
[4] = Table 3, dogs, single oral 30 mg/kg, mean ± SEM, 30 mg/kg

SMILES: NC(=O)C[S+]([O-])C(c1ccccc1)c1ccccc1 (racemic) [Form I, 2-(benzhydrylsulfinyl) acetamide, reference compound]
- concentration at 4 h ([1]; male, beagle, dog, plasma, po, 30 mg/kg, Table 2, male beagle dogs, single oral 30 mg/kg, mean ± SEM, read-out: C4 h (plasma level measured at 4 hours post-dose)): 15400 ± 2560 ng/mL
- Cmax ([1]; male, beagle, dog, plasma, po, 30 mg/kg, Table 2, male beagle dogs, single oral 30 mg/kg, mean ± SEM, read-out: Cmax (maximum plasma level of modafinil)): 18600 ± 2300 ng/mL
- AUC(0-t) ([1]; male, beagle, dog, plasma, po, 30 mg/kg, Table 2, male beagle dogs, single oral 30 mg/kg, trapezoidal rule 0 to 24 hours post-dose, mean ± SEM, read-out: AUC0-24 h): 165 ± 23.7 µg·h/mL
- concentration at 1 h ([1]; male, beagle, dog, plasma, po, 30 mg/kg, Table 3, dogs, single oral 30 mg/kg, mean ± SEM, read-out: C1 h (plasma level at 1 hour post-dose)): 8810 ± 2450 ng/mL
- concentration at 1.5 h ([1]; male, beagle, dog, plasma, po, 30 mg/kg, Table 3, dogs, single oral 30 mg/kg, mean ± SEM, read-out: C1.5 h (plasma level at 1.5 hours post-dose)): 12700 ± 2390 ng/mL
- concentration at 2 h ([1]; male, beagle, dog, plasma, po, 30 mg/kg, Table 3, dogs, single oral 30 mg/kg, mean ± SEM, read-out: C2 h (plasma level at 2 hours post-dose)): 14200 ± 2230 ng/mL
- concentration at 2.5 h ([1]; male, beagle, dog, plasma, po, 30 mg/kg, Table 3, dogs, single oral 30 mg/kg, mean ± SEM, read-out: C2.5 h (plasma level at 2.5 hours post-dose)): 14200 ± 1950 ng/mL
- Cmax ([1]; male, beagle, dog, plasma, po, 30 mg/kg, Table 3, dogs, single oral 30 mg/kg, mean ± SEM, read-out: Cmax): 18600 ± 2300 ng/mL
- Tmax ([1]; male, beagle, dog, plasma, po, 30 mg/kg, Table 3, dogs, single oral 30 mg/kg, mean, read-out: Tmax (time to reach peak plasma level of modafinil)): 3 h
- MRT ([1]; male, beagle, dog, plasma, po, 30 mg/kg, Table 3, male beagle dogs, single oral 30 mg/kg, mean ± SEM, read-out: MRT (mean residence time)): 6.91 ± 0.53 h
- stability of the polymorphic form [2]: most stable form

SMILES: NC(=O)C[S+]([O-])C(c1ccccc1)c1ccccc1 (stereo not shown) [modafinil form II, 2-(benzhydrylsulfinyl) acetamide]
- stability of the polymorphic form [2]: unstable

SMILES: NC(=O)C[S+]([O-])C(c1ccccc1)c1ccccc1 (racemic) [Form IV, 2-(benzhydrylsulfinyl) acetamide]
- C4 h (plasma level measured at 4 hours post-dose) [1, 3]: 21230 ± 1880 ng/mL
- Cmax (maximum plasma level of modafinil) [1, 3]: 24980 ± 1120 ng/mL
- AUC0-24 h ([1]; Table 2, male beagle dogs, single oral 30 mg/kg, trapezoidal rule 0 to 24 hours post-dose, mean ± SEM, 30 mg/kg): 200.69 ± 18.09 µg·h/mL
- systemic exposure (Cmax and AUC0-24h) compared with form I ([1]; dogs, equivalent dose 30 mg/kg by oral route): substantially higher

SMILES: NC(=O)C[S+]([O-])C(c1ccccc1)c1ccccc1 (racemic) [Form V, 2-(benzhydrylsulfinyl) acetamide]
- C1 h (plasma level at 1 hour post-dose) [1, 4]: 12410 ± 2070 ng/mL
- C1.5 h (plasma level at 1.5 hours post-dose) [1, 4]: 15.31 ± 2.06 µg/mL
- C2 h (plasma level at 2 hours post-dose) [1, 4]: 16560 ± 2480 ng/mL
- C2.5 h (plasma level at 2.5 hours post-dose) [1, 4]: 16.37 ± 2.38 µg/mL
- Cmax [1, 4]: 18720 ± 2090 ng/mL
- Tmax (time to reach peak plasma level of modafinil) ([1]; Table 3, dogs, single oral 30 mg/kg, mean, 30 mg/kg): 1.67 h
- MRT (mean residence time) ([1]; Table 3, male beagle dogs, single oral 30 mg/kg, mean ± SEM, 30 mg/kg): 6.11 ± 0.36 h
- reduction in time needed to reach the concentration Cmax versus reference form I ([1]; dogs, equivalent oral dose 30 mg/kg): ~50%
- mean Tmax value relative to that of reference polymorph I ([1]; dogs, oral 30 mg/kg, data of Table 3): about 50%

From patent US7649020B2, “Modafinil polymorphic forms” (Cephalon France, priority 2002, dated 2010)
